# Reference: article PMC7998309, “Structural-Based Optimizations of the Marine-Originated Meridianin C as Glucose Uptake Agents by Inhibiting GSK-3β” (Marine Drugs, 2021)
# Tests used:
# [1] = MTT assay for cell viability (cytotoxicity); format: cell-based, human; conditions: human; HepG2 cells, 48 h incubation, MTT
# Method: The hepatocyte cell line HepG2 cells obtained from the Type Culture Collection of the Chinese Academy of Sciences (Shanghai, China) were maintained in high-glucose DMEM (Gibco) supplemented with 10% fetal bovine serum (FBS) and 1% penicillin-streptomycin in an atmosphere of 5% CO2 at 37 °C.
# Into a 96-well plate, 1 × 10^3 HepG2 cells per well were seeded. After 24 h, stock solutions of test compounds in DMSO were diluted in DMEM to ≤0.1% final DMSO concentration. Cells were treated with various concentrations (2.5–25 µM) of tested compounds for 48 h, and the MTT solution (0.5 mg/mL) was added. After 4 h of incubation at 37 °C for MTT-formazan formation, the supernatant was discarded and 100 µL of DMSO was applied into each well to dissolve formazan crystals. Absorbance at 490 nm was determined spectrophotometrically by using a microplate reader (Epoch, BioTek Instruments, Inc., Winooski, VT, USA).
SMILES,melting point [°C],CC50 at 48 h [1] [µM]
"Nc1ncc(-c2ccc(NC(=O)c3ccc4ccccc4c3)cc2)c(-c2c[nH]c3ccc(Br)cc23)n1 [A29, N-(4-(2-amino-4-(5-bromo-1H-indol-3-yl)pyrimidin-5-yl)phenyl)-2-naphthamide]",189.3 to 190.2,> 25
"Clc1cccc(Nc2nccc(-c3c[nH]c4ccc(Br)cc34)n2)c1 [B5, 4-(5-Bromo-1H-indol-3-yl)-N-(3-chlorophenyl) pyrimidin-2-amine]",210.3 to 211.4,> 25
"Brc1cccc(Nc2nccc(-c3c[nH]c4ccc(Br)cc34)n2)c1 [B8, 4-(5-Bromo-1H-indol-3-yl)-N-(3-bromophenyl) pyrimidin-2-amine]",214.8 to 215.6,18.7
"FC(F)(F)c1cccc(Nc2nccc(-c3c[nH]c4ccc(Br)cc34)n2)c1 [B11, 4-(5-Bromo-1H-indol-3-yl)-N-(3-(trifluoromethyl)phenyl) pyrimidin-2-amine]",171.8 to 172.3,17.6
"FC(F)(F)c1ccc(Nc2nccc(-c3c[nH]c4ccc(Br)cc34)n2)cc1 [B12, 4-(5-Bromo-1H-indol-3-yl)-N-(4-(trifluoromethyl)phenyl) pyrimidin-2-amine]",279.5 to 280.3,> 25
"Cc1cccc(Nc2nccc(-c3c[nH]c4ccc(Br)cc34)n2)c1 [B14, 4-(5-Bromo-1H-indol-3-yl)-N-(m-tolyl) pyrimidin-2-amine]",141.5 to 142.3,8.6
"Cc1ccc(Nc2nccc(-c3c[nH]c4ccc(Br)cc34)n2)cc1 [B15, 4-(5-Bromo-1H-indol-3-yl)-N-(p-tolyl) pyrimidin-2-amine]",227.8 to 228.6,15.5
"COc1cccc(Nc2nccc(-c3c[nH]c4ccc(Br)cc34)n2)c1 [B17, 4-(5-Bromo-1H-indol-3-yl)-N-(3-methoxyphenyl) pyrimidin-2-amine]",208.7 to 209.3,10.6
"CC(C)c1cccc(Nc2nccc(-c3c[nH]c4ccc(Br)cc34)n2)c1 [B20, 4-(5-Bromo-1H-indol-3-yl)-N-(3-isopropylphenyl) pyrimidin-2-amine]",152.6 to 153.4,12.5
"CC(C)c1ccc(Nc2nccc(-c3c[nH]c4ccc(Br)cc34)n2)cc1 [B21, 4-(5-Bromo-1H-indol-3-yl)-N-(4-isopropylphenyl) pyrimidin-2-amine]",218.7 to 219.4,13

# Second part, led by results:
melting point [°C],SMILES,CC50 at 48 h [1] [µM]
197.6 to 198.7,"Brc1ccc2[nH]cc(-c3ccnc(Nc4ccccc4)n3)c2c1 [B22, 4-(5-Bromo-1H-indol-3-yl)-N-phenylpyrimidin-2-amine]",10.4
251.3 to 252.2,"Fc1cc(F)cc(Nc2nccc(-c3c[nH]c4ccc(Br)cc34)n2)c1 [B23, 4-(5-Bromo-1H-indol-3-yl)-N-(3,5-difluorophenyl) pyrimidin-2-amine]",16.1
223.6 to 224.3,"Clc1cc(Cl)cc(Nc2nccc(-c3c[nH]c4ccc(Br)cc34)n2)c1 [B24, 4-(5-Bromo-1H-indol-3-yl)-N-(3,5-dichlorophenyl) pyrimidin-2-amine]",10.5
193.4 to 193.7,"Brc1cc(Br)cc(Nc2nccc(-c3c[nH]c4ccc(Br)cc34)n2)c1 [B25, 4-(5-Bromo-1H-indol-3-yl)-N-(3,5-dibromophenyl) pyrimidin-2-amine]",> 25
220.9 to 221.3,"FC(F)(F)c1cc(Nc2nccc(-c3c[nH]c4ccc(Br)cc34)n2)cc(C(F)(F)F)c1 [B26, N-(3,5-bis(trifluoromethyl)phenyl)-4-(5-bromo-1H-indol-3-yl) pyrimidin-2-amine]",11.8
184.6 to 185.3,"Cc1cc(C)cc(Nc2nccc(-c3c[nH]c4ccc(Br)cc34)n2)c1 [B27, 4-(5-Bromo-1H-indol-3-yl)-N-(3,5-dimethylphenyl) pyrimidin-2-amine]",6
